Laboratory results: patent EP1561465A2, “Methods of use of fluoroquinolone compounds against bacteria” (LG Life Sciences, Ltd., priority 1999, dated 2001)
≈ marks a conversion by molar mass, not a printed value. Where “and” joins values, the source holds several entries; their conditions need not be identical. Identical values can stand only once. Like-named read-outs stand apart in the source and are kept apart here.

Legend:
[1] = test system: Yersinia enterocolitica; assay: MIC by agar dilution (NCCLS M7-A4), 288 enteropathogenic isolates, eight quinolones; format: cell-based
[2] = test system: Campylobacter jejuni; assay: MIC by agar dilution (NCCLS M7-A4), 288 enteropathogenic isolates, gemifloxacin and 15 other antimicrobials; conditions: Campylobacter jejuni
[3] = test system: Hafnia alvei; assay: MIC by agar dilution (NCCLS M7-A4), 288 enteropathogenic isolates, eight quinolones; format: cell-based
[4] = test system: Aeromonas spp.; assay: as above; format: cell-based
[5] = test system: Salmonella spp.; assay: as above; format: cell-based
[6] = test system: Hafnia alvei; assay: MIC by agar dilution (NCCLS M7-A4), 288 enteropathogenic isolates, gemifloxacin and 15 other antimicrobials; format: cell-based
[7] = test system: Yersinia enterocolitica; assay: as above; format: cell-based
[8] = test system: Campylobacter jejuni; assay: MIC by agar dilution (NCCLS M7-A4), 5% sheep blood, microaerophilic 48 h; format: cell-based
[9] = test system: Aeromonas spp.; assay: MIC by agar dilution (NCCLS M7-A4), 288 enteropathogenic isolates, gemifloxacin and 15 other antimicrobials; format: cell-based
[10] = test system: Salmonella spp.; assay: as above; format: cell-based
[11] = test system: Shigella spp.; assay: MIC by agar dilution (NCCLS M7-A4), 288 enteropathogenic isolates, eight quinolones; format: cell-based; conditions: for % Susceptible / MIC50 / MIC90 / MIC Range: Shigella spp. (n = 21)
[12] = test system: Shigella spp.; assay: MIC by agar dilution (NCCLS M7-A4), 288 enteropathogenic isolates, gemifloxacin and 15 other antimicrobials; format: cell-based; conditions: Shigella spp. N= 21
Procedure: [A. hydrophila (12), and A. sobria (4)], and 91 Campylobacter jejuni. […] The strains were stored in skimmed-milk at -80 °C until studied.
The plates were incubated aerobically at 35 °C for 24 h, except for Campylobacter jejuni, where a microaerophilic atmosphere was obtained by using Campy Pack (Becton Dickinson, Cockeysville, MD, USA), and incubation was for 48 h. All organisms were tested with an inoculum of ≅ 10^4 cfu/spot. MICs were defined as the lower antibiotic concentration with no visible growth.

[13] = test system: Staphylococcus aureus; assay: MIC by agar macrodilution (NCCLS), 373 Gram positive isolates, Athens 1998; format: cell-based; conditions: Methicillin-susceptible Staphylococcus aureus (n = 85)
[14] = test system: Streptococcus pneumoniae; assay: MIC by E-test (broth microdilution for gemifloxacin), 107 pneumococcal carrier isolates, Athens 1998; format: cell-based; conditions: Streptococcus pneumoniae, E-test; for MIC50: read-out: MIC50; for MIC90: read-out: MIC90
Procedure: Susceptibility testing was performed by agar dilution or epsilometer method (E-test), as recommended by the NCCLS. […] The susceptibility profiles of the strains were assessed using the Epsilometer method (E-test). The isolates were subdivided into two groups according to their penicillin susceptibility patterns (penicillin-susceptible and penicillin-intermediate.

[15] = test system: Streptococcus pneumoniae; assay: MIC by agar dilution (NCCLS), 411 isolates Buenos Aires 1998-99; format: cell-based; conditions: Streptococcus pneumoniae, S. pneumoniae, read-out: MIC90
[16] = Yersinia enterocolitica (n = 22)
[17] = 24 h, read-out: MIC (mg/L) Range
[18] = Penicillin-intermediate S. pneumoniae (n = 24)
[19] = Penicillin-susceptible S. pneumoniae (n = 107)

CCn1cc(C(=O)O)c(=O)c2cc(F)c(N3CCNCC3)cc21 [Norfloxacin, norfloxacin]
% Susceptible [1, 16]: 100%
MIC50 [1, 16]: 0.06 µg/mL (≈ 0.188 µM)
MIC90 [1, 16]: 0.06 µg/mL (≈ 0.188 µM)
MIC Range [1, 16]: 0.06 to 0.5 µg/mL
MIC ([2]; read-out: MIC (mg/L) 50%): 128 mg/L (≈ 401 µM)
MIC ([2]; read-out: MIC (mg/L) 90%): > 128 mg/L
% Susceptible ([3]; Hafnia alvei (n = 32)): 100%
MIC50 ([3]; Hafnia alvei (n = 32)): 0.03 µg/mL (≈ 0.0939 µM)
MIC90 ([3]; Hafnia alvei (n = 32)): 0.03 µg/mL (≈ 0.0939 µM)
MIC Range ([3]; Hafnia alvei (n = 32)): ≤0.015 to 0.03 µg/mL
% Susceptible ([4]; Aeromonas spp. (n = 16)): 100%
MIC50 ([4]; Aeromonas spp. (n = 16)): ≤ 0.015 µg/mL
MIC90 ([4]; Aeromonas spp. (n = 16)): 0.03 µg/mL (≈ 0.0939 µM)
MIC Range ([4]; Aeromonas spp. (n = 16)): ≤0.015 to 0.12 µg/mL
MIC ([5]; S. hadar (n = 2), ciprofloxacin MIC ≥[…], read-out: MIC): 4 µg/mL (≈ 12.5 µM)
MIC ([5]; S. newport (n = 1), ciprofloxacin MIC ≥[…], read-out: MIC): 2 µg/mL (≈ 6.26 µM)
MIC ([5]; S. virchow (n = 2), ciprofloxacin MIC ≥[…], read-out: MIC): 0.5 µg/mL (≈ 1.57 µM)
% Susceptible ([5]; Salmonella spp. (n = 106)): 100%
MIC50 ([5]; Salmonella spp. (n = 106)): 0.06 µg/mL (≈ 0.188 µM)
MIC90 ([5]; Salmonella spp. (n = 106)): 0.5 µg/mL (≈ 1.57 µM)
MIC Range ([5]; Salmonella spp. (n = 106)): 0.06 to 4 µg/mL
MIC ([5]; Salmonella, S. tshiongwe (n = 1), ciprofloxacin MIC ≥[…], read-out: MIC): 4 µg/mL (≈ 12.5 µM)
MIC ([6]; 24 h, Hafnia alvei N= 32, read-out: MIC (mg/L) Range): 0.015 to 0.03 mg/L (≈ 0.047 to 0.0939 µM)
MIC ([6]; read-out: MIC (mg/L) 50%, Hafnia alvei N= 32): 0.03 mg/L (≈ 0.0939 µM)
MIC ([6]; read-out: MIC (mg/L) 90%, Hafnia alvei N= 32): 0.03 mg/L (≈ 0.0939 µM)
MIC ([7]; 24 h, Yersinia enterocolitica N= 22, read-out: MIC (mg/L) Range): 0.06 to 0.5 mg/L (≈ 0.188 to 1.57 µM)
MIC ([7]; read-out: MIC (mg/L) 50%, Yersinia enterocolitica N= 22): 0.06 mg/L (≈ 0.188 µM)
MIC ([7]; read-out: MIC (mg/L) 90%, Yersinia enterocolitica N= 22): 0.06 mg/L (≈ 0.188 µM)
% Susceptible ([8]; Campylobacter jejuni (n=91)): 31.86%
MIC50 ([8]; Campylobacter jejuni (n=91)): 128 µg/mL (≈ 401 µM)
MIC90 ([8]; Campylobacter jejuni (n=91)): > 128 µg/mL
MIC (mg/L) Range ([9]; Aeromonas spp. N= 16): ≤0.015 to 0.12 mg/L
MIC ([9]; read-out: MIC (mg/L) 50%, Aeromonas spp. N= 16): ≤ 0.015 mg/L
MIC ([9]; read-out: MIC (mg/L) 90%, Aeromonas spp. N= 16): 0.03 mg/L (≈ 0.0939 µM)
MIC ([10]; S. hadar(2), isolates with MICs for ciprofloxacin ≥[…], read-out: MIC): 4 mg/L (≈ 12.5 µM)
MIC ([10]; S. newport(1), isolate with MIC for ciprofloxacin ≥[…], read-out: MIC): 2 mg/L (≈ 6.26 µM)
MIC ([10]; S. virchow(2), isolates with MICs for ciprofloxacin ≥[…], read-out: MIC): 0.5 mg/L (≈ 1.57 µM)
MIC (mg/L) Range ([10]; Salmonella spp. N= 106): 0.06 to 4 mg/L
MIC ([10]; Salmonella, S. tshiongwe(1), isolate with MIC for ciprofloxacin ≥[…], read-out: MIC): 4 mg/L (≈ 12.5 µM)
MIC ([10]; Salmonella, read-out: MIC (mg/L) 50%, Salmonella spp. N= 106): 0.06 mg/L (≈ 0.188 µM)
MIC ([10]; Salmonella, read-out: MIC (mg/L) 90%, Salmonella spp. N= 106): 0.5 mg/L (≈ 1.57 µM)
% Susceptible [11]: 100%
MIC50 [11]: 0.06 µg/mL (≈ 0.188 µM)
MIC90 [11]: 0.06 µg/mL (≈ 0.188 µM)
MIC Range [11]: 0.03 to 0.06 µg/mL
MIC [12, 17]: 0.03 to 0.06 mg/L (≈ 0.0939 to 0.188 µM)
MIC ([12]; read-out: MIC (mg/L) 50%): 0.06 mg/L (≈ 0.188 µM)
MIC ([12]; read-out: MIC (mg/L) 90%): 0.06 mg/L (≈ 0.188 µM)

CCn1cc(C(=O)O)c(=O)c2ccc(C)nc21 [Nalidixic acid, nalidixic acid]
Non-susceptibility rate ([1]; Y. enterocolitica): 4.5%
MIC50 ([1]; Yersinia enterocolitica): 2 µg/mL (≈ 8.61 µM)
MIC90 ([1]; Yersinia enterocolitica): 2 µg/mL (≈ 8.61 µM)
% Susceptible [1, 16]: 95.5%
MIC ([2]; read-out: MIC (mg/L) 50%): > 128 mg/L
MIC ([2]; read-out: MIC (mg/L) 90%): > 128 mg/L
Non-susceptibility rate ([3]; H. alvei): 0%
MIC50 ([3]; Hafnia alvei): 2 µg/mL (≈ 8.61 µM)
MIC90 ([3]; Hafnia alvei): 2 µg/mL (≈ 8.61 µM)
% Susceptible ([3]; Hafnia alvei (n = 32)): 100%
MIC Range ([3]; Hafnia alvei (n = 32)): 1 to 2 µg/mL
MIC50 ([4]; Aeromonas): 0.12 µg/mL (≈ 0.517 µM)
MIC90 ([4]; Aeromonas): 0.25 µg/mL (≈ 1.08 µM)
Non-susceptibility rate ([4]; Aeromonas spp.): 6.25% and 6.3%
% Susceptible ([4]; Aeromonas spp. (n = 16)): 93.75%
MIC [5]: > 128 µg/mL
MIC ([5]; Salmonella): > 128 µg/mL
MIC50 ([5]; Salmonella): 4 µg/mL (≈ 17.2 µM)
MIC90 ([5]; Salmonella): > 128 µg/mL
Non-susceptibility rate ([5]; Salmonella spp.): 27%
% Susceptible ([5]; Salmonella spp. (n = 106)): 73%
MIC ([6]; Hafnia alvei, 24 h, read-out: MIC (mg/L) Range): 1 to 2 mg/L (≈ 4.31 to 8.61 µM)
MIC ([6]; Hafnia alvei, read-out: MIC (mg/L) 50%): 2 mg/L (≈ 8.61 µM)
MIC ([6]; Hafnia alvei, read-out: MIC (mg/L) 90%): 2 mg/L (≈ 8.61 µM)
Rates of non-susceptible microorganisms ([7]; Yersinia enterocolitica): 5%
MIC ([7]; Yersinia enterocolitica, read-out: MIC (mg/L) 50%): 2 mg/L (≈ 8.61 µM)
MIC ([7]; Yersinia enterocolitica, read-out: MIC (mg/L) 90%): 2 mg/L (≈ 8.61 µM)
Non-susceptibility rate ([8]; C. jejuni): 69.24%
MIC50 ([8]; Campylobacter jejuni): > 128 µg/mL
MIC90 ([8]; Campylobacter jejuni): > 128 µg/mL
% Susceptible ([8]; Campylobacter jejuni (n=91)): 30.76%
Rates of non-susceptible microorganisms ([9]; Aeromonas spp.): 6%
MIC ([9]; Aeromonas, read-out: MIC (mg/L) 50%): 0.12 mg/L (≈ 0.517 µM)
MIC ([9]; Aeromonas, read-out: MIC (mg/L) 90%): 0.25 mg/L (≈ 1.08 µM)
MIC [10]: > 128 mg/L
MIC ([10]; S. hadar(2), isolates with MICs for ciprofloxacin ≥[…]): >128 mg/L
MIC ([10]; Salmonella): > 128 mg/L
Rates of non-susceptible microorganisms ([10]; Salmonella spp.): 27%
MIC ([10]; Salmonella, read-out: MIC (mg/L) 50%): 4 mg/L (≈ 17.2 µM)
MIC ([10]; Salmonella, read-out: MIC (mg/L) 90%): > 128 mg/L
Non-susceptibility rate ([11]; Shigella spp.): 0%
% Susceptible [11]: 100%
MIC50 [11]: 1 µg/mL (≈ 4.31 µM)
MIC90 [11]: 2 µg/mL (≈ 8.61 µM)
MIC Range [11]: 1 to 2 µg/mL
MIC [12, 17]: 1 to 2 mg/L (≈ 4.31 to 8.61 µM)
MIC ([12]; read-out: MIC (mg/L) 50%): 1 mg/L (≈ 4.31 µM)
MIC ([12]; read-out: MIC (mg/L) 90%): 2 mg/L (≈ 8.61 µM)

CC[C@H]1OC(=O)[C@H](C)[C@@H](O[C@H]2C[C@@](C)(OC)[C@@H](O)[C@H](C)O2)[C@H](C)[C@@H](O[C@@H]2O[C@H](C)C[C@H](N(C)C)[C@H]2O)[C@](C)(O)C[C@@H](C)CN(C)[C@H](C)[C@@H](O)[C@]1(C)O [Azithromycin, azithromycin]
MIC50 ([13]; read-out: MIC50): 1 µg/mL (≈ 1.34 µM)
MIC90 ([13]; read-out: MIC90): 2 µg/mL (≈ 2.67 µM)
MIC50 [14, 18]: 1 µg/mL (≈ 1.34 µM)
MIC90 [14, 18]: ≥ 256 µg/mL
MIC50 [14, 19]: 0.75 µg/mL (≈ 1 µM)
MIC90 [14, 19]: 3 µg/mL (≈ 4.01 µM)
MIC90 ([15]; Penicillin intermediate (n = 17)): 1 µg/mL (≈ 1.34 µM)
MIC90 ([15]; Penicillin resistant (n = 4)): 0.06 µg/mL (≈ 0.0801 µM)
MIC90 ([15]; Penicillin susceptible (n = 69)): 0.06 µg/mL (≈ 0.0801 µM)
